Laboratory results published in patent US7049311B1, “Pyrrolbenzodiazepines” (Spirogen Limited, priority 1998, dated 2006).
pIC50: −log10 of the molar value. Like-named read-outs stand apart in the source and are kept apart here.

How the values were obtained:
A2780 = test: Ovarian carcinoma cytotoxicity assay; type: cell-based, human
Procedure: (§1) Compounds of the invention (and Anthramycin as a comparison) were evaluated for their cytotoxic activity in ovarian cell lines by Dr Lloyd R. Kelland's group at The Institute of Cancer Research, Sutton, UK. The five cell lines investigated were SKOV-3, A2780/A2780cisR and CH1/CH1cisR (cis R denotes that the cell line is resistant to cisplatin).
(§2) Single viable cells were seeded in growth medium (160 μL) in […] microtitre plates and allowed to attach overnight. […] After 96 hours, the medium was removed and the remaining cells fixed by exposure to 10% trichloroacetic acid on ice for 30 minutes. The wells were then washed 3-4 times with tap water, air dried overnight and treated with 100 μL of sulphorhodamine B (0.4%) dissolved in 1% acetic acid. Staining was allowed to continue for 10-15 minutes, then the wells were washed 3-4 times with 1% acetic acid, air dried and then added to Tris base (100 μL of 10 mM). Plates were then shaken and absorbance readings at 540 nm were determined using a plate reader. By using the Quattro-Pro software package, the IC50 values were calculated from plots of concentration versus percentage absorbance (compared with 8 untreated wells).

A2780cisR = test: Ovarian carcinoma cytotoxicity assay; type: cell-based, human
Procedure: as §1, §2

SKOV-3 = test: Ovarian carcinoma cytotoxicity assay; type: cell-based
Procedure: as §1, §2

CH1cisR = test: Ovarian carcinoma cytotoxicity assay; type: cell-based
Procedure: as §1, §2

CH1 = test: Ovarian carcinoma cytotoxicity assay; type: cell-based
Procedure: as §1, §2

calf thymus DNA = test: DNA helix melting temperature assay; type: binding; settings: [PBD]:[DNA] ratio of 1:5, calf thymus DNA
Procedure: The first assay, which is described in G. B. Jones, et al., Anti-Cancer Drug Des., 1990, 5, 249, which is incorporated herein by reference, determines the effect of the test compound on the helix melting temperature of DNA. This assay is designed to give an indication of the strength and extent of cross-linking of the DNA strands by the test compound (i.e. a measure of the stabilisation of the DNA upon ligand binding).
The melting temperature was determined for a 1:5 molar ratio of [ligand] [DNA], where the calf thymus DNA concentration is […] in aqueous sodium phosphate buffer (10 mM sodium phosphate+1 mM EDTA, pH 7.00±0.01). For calf thymus DNA at pH 7.00±0.01, the melting temperature is 67.83±0.06° C. (mean value from 30 separate determinations).

SK-MEL-2 = test: NCI in vitro cytotoxicity screen; type: cell-based; settings: Homo sapiens, SK-MEL-2, 48 h, read-out: LC50
Procedure: (§3) The National Cancer Institute (NCI), Bethesda, Md., USA has available an in vitro cytotoxicity screen which consists of approximately 60 human tumour cell lines against which compounds are tested at a minimum of five concentrations each differing 10-fold. A 48 hour continuous exposure protocol is used, where cell viability or growth is estimated with an SRB protein assay.
(§4) The test compounds were evaluated against approximately 60 human tumour cell lines. The NCI screening procedures were described in detail by Monks and co-workers (Monks, A et al., Journal of the National Cancer Institute, 1991, 83, 757). Briefly, cell suspensions were diluted according to the particular cell type and the expected target cell density (5000-40,000 cells per well based on cell growth characteristics), and added by pipette (100 μL) into 96-well microtitre plates. The cells were allowed a preincubation period of 24 hours at 37° C. for stabilisation. Dilutions at twice the intended test concentration were added at time zero in 100 μL aliquots to the wells. The test compounds were evaluated at five 10-fold dilutions (10^−4, 10^−5, 10^−6, 10^−7 and 10^−[…]). The test compounds were incubated for 48 hours in 5% CO2 atmosphere and 100% humidity. The cells were then assayed using the sulphorhodamine B assay. A plate reader was used to read the optical densities and a microcomputer processed the readings into LC50 values, which is the dosage required to kill half of the cells.

NCI-H522 = test: NCI in vitro cytotoxicity screen; type: cell-based; settings: Homo sapiens, NCI-H522, 48 h, read-out: LC50
Procedure: as §3, §4

RXF 393 = test: NCI in vitro cytotoxicity screen; type: cell-based; settings: Homo sapiens, RXF 393, 48 h, read-out: LC50
Procedure: as §3, §4

[1] = Homo sapiens, A2780, 96 h, read-out: IC50 A2780, 96 hours, sulphorhodamine B
[2] = Homo sapiens, A2780cisR, 96 h, read-out: IC50 A2780cisR, cisplatin-resistant, 96 hours, sulphorhodamine B
[3] = Homo sapiens, SK-OV-3, 96 h, read-out: IC50 Skov3, 96 hours, sulphorhodamine B
[4] = Homo sapiens, CH1cisR, 96 h, read-out: IC50 CH1cisR, cisplatin-resistant, 96 hours, sulphorhodamine B
[5] = Homo sapiens, CH1, 96 h, read-out: IC50 CH1, 96 hours, sulphorhodamine B

| SMILES | pIC50 (A2780; [1]) | pIC50 (A2780cisR; [2]) | pIC50 (SKOV-3; [3]) | pIC50 (CH1cisR; [4]) | pIC50 (CH1; [5]) | other results |
| --- | --- | --- | --- | --- | --- | --- |
| Cc1ccc2c(c1O)NC(O)C1CC(/C=C/C(N)=O)=CN1C2=O (centres unmarked) [Anthramycin, anthramycin, reference compound] | 6.81 | 6.80 | 6.80 | 7.30 | 7.21 |  |
| C/C=C1\C[C@H]2C=Nc3cc(O)c(OC)cc3C(=O)N2C1 [Tomamycin, tomaymycin] |  |  |  |  |  | Induced ΔTa after incubation at 37° C. for 0 h (calf thymus DNA; pH 7.00, 0 h): 0.97 °C; Induced ΔTa after incubation at 37° C. for 4 h (calf thymus DNA; pH 7.00, 4 h): 2.38 °C; Induced ΔTa after incubation at 37° C. for 18 h (calf thymus DNA; pH 7.00, 18 h): 2.56 °C |
| COc1cc2c(cc1OCc1ccccc1)N=C[C@@H]1CC(CC#N)=CN1C2=O [UP2074 (10)] | 6.81 | 6.37 | 6.28 | 6.57 | 6.98 |  |
| COc1cc2c(cc1OCCC(=O)N1CCCCC1)N=C[C@@H]1CCCN1C2=O [UP2006 (163)] | 5.49 | 4.84 | 4.63 | 5.10 | 5.31 |  |
| COC(=O)CC1=CN2C(=O)c3cc(OC)c(OCCCOc4cc5c(cc4OC)C(=O)N4C=C(CC(=O)OC)C[C@H]4C=N5)cc3N=C[C@@H]2C1 [UP2053 (56)] | 8.27 | 7.24 | 7.00 | 7.96 | 7.94 |  |
| COc1cc2c(cc1OC)C(=O)N1C=C(c3ccccc3)C[C@H]1C=N2 [UP2095 (181), (11aS)-1,11a-dihydro-7,8-dimethoxy-2-phenyl-5H-pyrrolo[2,1-c][1,4]benzodiazepin-5-one] | > 7.30 | > 7.30 | > 7.30 | > 7.30 | > 7.30 |  |
| C/C=C1\C[C@H]2C=Nc3cc(OCc4ccccc4)c(OC)cc3C(=O)N2C1 [UP2100 (207)] | > 7.30 | 7.18 | 7.09 | > 7.30 | > 7.30 |  |
| C=CC1=CN2C(=O)c3cc(OC)c(OC)cc3N=C[C@@H]2C1 [UP2089 (177), (11aS)-1,11a-dihydro-7,8-dimethoxy-2-ethenyl-5H-pyrrolo[2,1-c][1,4]benzodiazepin-5-one] | 8.66 | 8.38 | 8.27 | 8.64 | > 8.60 |  |
| COc1cc2c(c(OC)c1OCc1ccccc1)N=C[C@@H]1CCCN1C2=O [UP2022 (143), 8-Benzyloxy-7,9-dimethoxy-1,2,3,11a-tetrahydropyrrolo[2,1-c][1,4]benzodiazepin-5-one] |  | 4.78 | 4.48 | 4.96 | 4.85 |  |
| COc1ccc(C2=CN3C(=O)c4cc(OC)c(OC)cc4N=C[C@@H]3C2)cc1 [UP2092 (179), (11aS)-1,11a-dihydro-7,8-dimethoxy-2-(4-methoxyphenyl)-5H-pyrrolo[2,1-c][1,4]benzodiazepin-5-one] | 8.40 | 8.15 | 8.01 | 8.09 | 8.80 |  |
| COc1cc2c(c(OC)c1O)N=CC1CC(=O)CN1C2 (centres unmarked) [UP2021 (130), 7,9-dimethoxy-8-Hydroxy-1,2,3,11a-tetrahydropyrrolo[2,1-c][1,4]benzodiazepin-2-one] | < 4.00 | < 4.00 | < 4.00 | 4.33 | 4.29 |  |
| COc1cc2c(cc1OCCCNC(=O)OCC1c3ccccc3-c3ccccc31)N=C[C@@H]1CCCN1C2=O [UP2088 (205), (11aS) 8-(N-9-fluorenylmethoxycarbonyl)aminopropyloxy-7-methoxy-1,2,3,11a-tetrahydro-5H-pyrrolo[2,1-c][1,4]benzodiazepin-5-one] |  |  |  |  |  | pIC50 (A2780; 96 hours, sulphorhodamine B, read-out: IC50 A2780): 4.96; pIC50 (A2780cisR; cisplatin-resistant, 96 hours, sulphorhodamine B, read-out: IC50 A2780cisR): 5.07; pIC50 (SKOV-3; 96 hours, sulphorhodamine B, read-out: IC50 Skov3): 4.85; pIC50 (CH1cisR; cisplatin-resistant, 96 hours, sulphorhodamine B, read-out: IC50 CH1cisR): 4.80; pIC50 (CH1; 96 hours, sulphorhodamine B, read-out: IC50 CH1): 4.92 |
| COc1cc2c(c(OC)c1OC)N=C[C@@H]1CCCN1C2=O [UP2086 (120), 7,8,9-Trimethoxy-1,2,3,11a-tetrahydro-5H-pyrrolo[2,1-c][1,4]benzodiazepin-5-one] | 6.08 | 6.35 | 5.60 | 5.66 | 5.80 |  |
| COc1cc2c(cc1OCCC(=O)N1CCc3ccccc31)N=C[C@@H]1CCCN1C2=O [UP2007 (165), 1, (2,3-dihydro-1H-indolyl)-3-(7-methoxy-5-oxy(11as)-2,3,5,11a-tetrahydro-1H-benzo[e]pyrrolo[1,2-a][1,4]diazepin-8-yloxy)-1-propanone] |  |  |  |  |  | pIC50 (A2780; read-out: IC50 A2780, 96 hours, sulphorhodamine B): 5.81; pIC50 (A2780cisR; read-out: IC50 A2780cisR, cisplatin-resistant, 96 hours, sulphorhodamine B): 5.31; pIC50 (SKOV-3; read-out: IC50 Skov3, 96 hours, sulphorhodamine B): 5.24; pIC50 (CH1cisR; read-out: IC50 CH1cisR, cisplatin-resistant, 96 hours, sulphorhodamine B): 5.52; pIC50 (CH1; read-out: IC50 CH1, 96 hours, sulphorhodamine B): 5.82 |
| COc1ccc(-c2ccc3c(c2)C(=O)N2CCC[C@H]2C=N3)cc1 [UP2027 (138), (11aS)-7-(4′-Methoxyphenyl)-1,2,3,11a-tetrahydro-5H-pyrrolo[2,1-c]-[1,4]benzodiazepin-5-one] |  |  |  |  |  | CC50 (SK-MEL-2): 9500 nM; CC50 (NCI-H522): 8000 nM; CC50 (RXF 393): 6600 nM; pIC50 (A2780; Homo sapiens, A2780, 96 hours, sulphorhodamine B, read-out: IC50 A2780): 6.25; pIC50 (A2780cisR; Homo sapiens, A2780cisR, cisplatin-resistant, 96 hours, sulphorhodamine B, read-out: IC50 A2780cisR): 5.81; pIC50 (SKOV-3; Homo sapiens, SK-OV-3, 96 hours, sulphorhodamine B, read-out: IC50 Skov3): 5.77; pIC50 (CH1cisR; Homo sapiens, CH1cisR, cisplatin-resistant, 96 hours, sulphorhodamine B, read-out: IC50 CH1cisR): 5.94; pIC50 (CH1; Homo sapiens, CH1, 96 hours, sulphorhodamine B, read-out: IC50 CH1): 5.87 |
| COc1cc2c(cc1OC)C(=O)N1CCC[C@H]1C=N2 [UP2025 (106), (11aS)-7,8-dimethoxy-1,2,3,11a-tetrahydro-5H-pyrrolo [2,1-c][1,4]benzodiazepin-5-one] | 7.19 |  | 5.77 | 6.96 | 7.09 |  |
| COc1cc2c(c(OC)c1OCCCOc1c(OC)cc3c(c1OC)N=C[C@@H]1CCCN1C3=O)N=C[C@@H]1CCCN1C2=O [UP2020 (90)] | 5.00 | 5.14 | 5.80 | 5.55 | 5.77 |  |
| COc1cccc2c1N=C[C@@H]1CCCN1C2=O [UP2024 (101), (11aS)-9-methoxy-1,2,3,11a-tetrahydro-5H-pyrrolo[2,1-c][1,4]benzodiazepin-5-one] | 5.85 | 5.74 | 5.63 | 5.90 | 5.84 |  |
